What was measured:
[1] = logP determination by HPLC on reversed-phase columns (C 18), EEC Directive 79/831 Annex V.A8; format: physicochemical; settings: for chromatographic logP: reversed-phase C18 HPLC column
Text: Calibration takes place using unbranched alkan-2-ones (having 3 to 16 carbon atoms) whose log P values are known (log P values determined on the basis of the retention times, by linear interpolation between two successive alkanones).

[2] = system: Phytophthora infestans; format: in vivo; settings: young tomato plants, protective spray, active ingredient concentration 100 ppm, evaluation 7 days after inoculation
[3] = system: Plasmopara viticola; test: Plasmopara test (grapevine) / protective; format: in vivo; settings: young grapevine plants, protective spray, active ingredient concentration 10 ppm, evaluation 6 days after inoculation
Protocol: Plasmopara Test (Grapevine)/Protective
Solvent: 24.5 parts by weight of acetone
• 24.5 parts by weight of dimethylacetamide Emulsifier: 1 part by weight of alkylaryl polyglycol ether
An appropriate preparation of active ingredient is prepared by mixing 1 part by weight of active ingredient with the specified amounts of solvent and emulsifier, and diluting the concentrate with water to the desired concentration.
To test for protective activity, young plants are sprayed with the preparation of active ingredient at the specified application rate. After the spray coating has dried on, the plants are inoculated with an aqueous spore suspension of Plasmopara viticola and then spend 1 day in an incubation cabinet at about 20° C. and 100% relative atmospheric humidity. The plants are subsequently placed for 4 days in a greenhouse at about 21° C. and about 90% atmospheric humidity. The plants are then moistened and placed in an incubation cabin for 1 day.
Evaluation takes place 6 days after inoculation. Here, 0% denotes an efficacy which corresponds to that of the control, whereas an efficacy of 100% means that no infestation is observed.

[4] = [a] LC-MS in the acidic range, pH 2.7, 0.1% aqueous formic acid and acetonitrile
[5] = [b] LC-MS in the neutral range, pH 7.8, 0.001 molar aqueous ammonium hydrogencarbonate and acetonitrile

| Structure (SMILES) | LogP [1, 4] | LogP [1, 5] | Eff. % [2] | Eff. % [3] | chromatographic logP [1, 4] | chromatographic logP [1, 5] |
| --- | --- | --- | --- | --- | --- | --- |
| C#CCOc1c(F)ccc(F)c1C1CC(c2csc(C3CCN(C(=O)Cn4nc(C(F)F)cc4C(F)F)CC3)n2)=NO1 (racemic) [Example I-12] | 3.31 | 3.3 |  |  |  |  |
| CS(=O)(=O)Nc1cc(F)c(C2CC(c3csc(C4CCN(C(=O)Cn5nc(C(F)F)cc5C(F)F)CC4)n3)=NO2)c(F)c1 (stereo not drawn) [Example I-5, N-(4-{3-[2-(1-{[3,5-Bis(difluoromethyl)-1H-pyrazol-1-yl]acetyl}piperidin-4-yl)-1,3-thiazol-4-yl]-4,5-dihydro-1,2-oxazol-5-yl}-3,5-difluorophenyl)methanesulphonamide] |  |  | 95% | 96% | 2.63 |  |
| C=CCOc1ccc(F)c(C2CC(c3csc(C4CCN(C(=O)Cn5nc(C(F)F)cc5C(F)F)CC4)n3)=NO2)c1F (stereo not drawn) [Example I-4, 1-[4-(4-{5-[3-(Allyloxy)-2,6-difluorophenyl]-4,5-dihydro-1,2-oxazol-3-yl}-1,3-thiazol-2-yl)piperidin-1-yl]-2-[3,5-bis(difluoromethyl)-1H-pyrazol-1-yl]ethanone] |  |  | 95% | 100% | 3.59 | 3.51 |
| C#CCOc1cc(F)cc(F)c1C1CC(c2csc(C3CCN(C(=O)Cn4nc(C(F)F)cc4C(F)F)CC3)n2)=NO1 (racemic) [Example I-13] | 3.32^[a] |  |  | 100% |  |  |
| O=Cc1cc(F)c(C2CC(c3csc(C4CCN(C(=O)Cn5nc(C(F)F)cc5C(F)F)CC4)n3)=NO2)c(F)c1 (racemic) [Example I-14] | 2.93 | 2.87 |  |  |  |  |
| C#CCOc1cc(F)c(C2CC(c3csc(C4CCN(C(=O)Cn5nc(C(F)F)cc5C(F)F)CC4)n3)=NO2)c(F)c1 (racemic) [Example I-3] | 3.3 | 3.26 | 98% | 100% |  |  |
| C#CCOc1ccc(F)c(F)c1C1CC(c2csc(C3CCN(C(=O)Cn4nc(C(F)F)cc4C(F)F)CC3)n2)=NO1 (racemic) [Example I-8] | 3.3 | 3.27 |  | 100% |  |  |
| O=C(Oc1cc(F)cc(F)c1C1CC(c2csc(C3CCN(C(=O)Cn4nc(C(F)F)cc4C(F)F)CC3)n2)=NO1)C1CC1 (racemic) [Example I-16] | 3.5 | 3.42 |  |  |  |  |
| C=CCOc1cc(Cl)cc(Cl)c1C1CC(c2csc(C3CCN(C(=O)Cn4nc(C(F)F)cc4C(F)F)CC3)n2)=NO1 (racemic) [Example I-18] | 4.29 | 4.2 | 95% | 96% |  |  |
| C#CCOc1ccc(F)c(C2CC(c3csc(C4CCN(C(=O)Cn5nc(C(F)F)cc5C(F)F)CC4)n3)=NO2)c1F (stereo not drawn) [Example I-2, 2-[3,5-Bis(difluoromethyl)-1H-pyrazol-1-yl]-1-[4-(4-{5-[2,6-difluoro-3-(prop-2-yn-1-yloxy)phenyl]-4,5-dihydro-1,2-oxazol-3-yl}-1,3-thiazol-2-yl)piperidin-1-yl]ethanone] |  |  | 94% | 100% | 3.26 | 3.18 |
| C=C(Cl)COc1cc(F)cc(F)c1C1CC(c2csc(C3CCN(C(=O)Cn4nc(C(F)F)cc4C(F)F)CC3)n2)=NO1 (racemic) [Example I-19] | 3.79 | 3.7 |  | 100% |  |  |
| C=C(Cl)COc1ccc(F)c(F)c1C1CC(c2csc(C3CCN(C(=O)Cn4nc(C(F)F)cc4C(F)F)CC3)n2)=NO1 (racemic) [Example I-7] | 3.68 | 3.69 |  | 100% |  |  |
| C=CCOc1ccc(F)c(F)c1C1CC(c2csc(C3CCN(C(=O)Cn4nc(C(F)F)cc4C(F)F)CC3)n2)=NO1 (racemic) [Example I-17] | 3.53 | 3.56 |  | 100% |  |  |
| O=C(Cn1nc(C(F)F)cc1C(F)F)N1CCC(c2nc(C3=NOC(c4c(F)cc(F)cc4OCC4CC4)C3)cs2)CC1 (racemic) [Example I-15] | 3.81 | 3.76 |  |  |  |  |
| C=CCOc1cc(F)c(C2CC(c3csc(C4CCN(C(=O)Cn5nc(C(F)F)cc5C(F)F)CC4)n3)=NO2)c(F)c1 (racemic) [Example I-11] | 3.7^[a] |  |  |  |  |  |
| O=C(Cn1nc(C(F)F)cc1C(F)F)N1CCC(c2nc(C3=NOC(c4c(OC/C=C\Cl)ccc(F)c4F)C3)cs2)CC1 (racemic) [Example I-6] | 3.79 | 3.71 |  |  |  |  |
| C#CCOc1c(F)cc(F)cc1C1CC(c2csc(C3CCN(C(=O)Cn4nc(C(F)F)cc4C(F)F)CC3)n2)=NO1 (racemic) [Example I-10] | 3.58 | 3.51 |  |  |  |  |
| C#CCOc1cc(Cl)cc(Cl)c1C1CC(c2csc(C3CCN(C(=O)Cn4nc(C(F)F)cc4C(F)F)CC3)n2)=NO1 (racemic) [Example I-21] | 3.94 | 3.85 | 95% | 100% |  |  |
| C=CCOc1cc(F)cc(F)c1C1CC(c2csc(C3CCN(C(=O)Cn4nc(C(F)F)cc4C(F)F)CC3)n2)=NO1 (racemic) [Example I-20] | 3.67 | 3.58 |  | 100% |  |  |
| C#CCOc1cc(C)c(C)cc1C1(C)CC(c2csc(C3CCN(C(=O)Cn4nc(C(F)F)cc4C(F)F)CC3)n2)=NO1 (stereo not drawn) [Example I-1, 2-[3,5-Bis(difluoromethyl)-1H-pyrazol-1-yl]-1-[4-(4-{5-[4,5-dimethyl-2-(prop-2-yn-1-yloxy)phenyl]-5-methyl-4,5-dihydro-1,2-oxazol-3-yl}-1,3-thiazol-2-yl)piperidin-1-yl]ethanone] |  |  | 98% |  | 4.1 | 4.04 |
| O=C(Oc1cc(F)c(C2CC(c3csc(C4CCN(C(=O)Cn5nc(C(F)F)cc5C(F)F)CC4)n3)=NO2)c(F)c1)C1CC1 (racemic) [Example I-9] | 3.53^[a] |  |  |  |  |  |

— patent US10004232B2 (priority 2011, dated 2018)
